Data on 1 compound can be found in ChEMBL document CHEMBL2016490, “Sinularioside, a triacetylated glycolipid from the Indonesian soft coral Sinularia sp., is an inhibitor of NO release” (2012).

What all share (format): functional
Details in all cases: J774, 24 h

Test [1] deals with J774. Description: Antiinflammatory activity in mouse J774 cells assessed as inhibition of LPS-induced NO production at 10 uM after 24 hrs by Griess method. Background: The Griess reaction detects nitrite, a stable product of nitric oxide.
Test [2] deals with J774. Nature of the test: Antiinflammatory activity in mouse J774 cells assessed as inhibition of LPS-induced NO production at 30 uM after 24 hrs by Griess method.
The test system of test [3] is J774. Nature of the test: Antiinflammatory activity in mouse J774 cells assessed as inhibition of LPS-induced NO production at 100 uM after 24 hrs by Griess method.

Molecules are shown by their SMILES.

Consider `CCCCCCCCCCCCCCO[C@H]1OC[C@@H](O[C@H]2OC[C@@H](O)[C@@H](OC(C)=O)[C@@H]2OC(C)=O)[C@@H](O)[C@@H]1OC(C)=O` [SINULARIOSIDE], for which, in the test on J774 [1], the inhibition (in general, the drop in the measured response relative to a control, in per cent) at 10 µM turned out to be 6%. In addition, the inhibition at 30 µM with J774 [2] was 58.2%. Further, in the test with J774 [3], the inhibition at 100 µM worked out at 92.3%.
